The experiment deals with T1, PD-1/PD-L1 interaction (PE-labeled human PD-L1-Ig binding to Jurkat cell line over-expressing human PD-1) (Homo sapiens, UniProt Q15116).
T1 construct: expressed in transfected cells; host or cells: Jurkat
Put plainly: Jurkat-PD-1 Cell Binding High-Content Screening Assay (CBA). The procedure, abridged:
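In this imaging assay, cells in 10% FCS medium see compound for 2 h at 37 °C and then labeled ligand at 20 nM final for 1 h. Paraformaldehyde fixation, Hoechst 33342 staining and dPBS washes precede image capture.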

[1] abbreviates: Jurkat-hPD-1 cells, PE-labeled PD-L1-Ig 20 nM final; read-out: Jurkat HPD1 PDL1 IC50.

SMILES strings stand for the structures. Where two headings read alike, the source gives them in different places. *1 amine or outer side, *2 acyl side, *3 side chain or, on linkers, in order; H or OH if unused. Where a SMILES comes first, the peptide text is derived from it. Bridges are numbered along the chain shown (N, C = ends). [ ]: non-standard residue; d: D form. The star is where a group is joined. ξ: configuration not given here. Phe(3-CF3) = N[C@@H](Cc1cccc(C(F)(F)F)c1)C(=O)O; Phe(4-COOH) = N[C@@H](Cc1ccc(C(=O)O)cc1)C(=O)O; Bip = N[C@@H](Cc1ccc(-c2ccccc2)cc1)C(=O)O; Phe(3-Me) = Cc1cccc(C[C@H](N)C(=O)O)c1; γGlu = O=C(O)[C@H](CCC(=O)[*:2])N[*:1]; NH(CH2)12COOH = O=C(O)CCCCCCCCCCCCN*; Cyclopropanecarbonyl = O=C(C1CC1)*; Val(3-OH) = CC(C)(O)[C@H](N)C(=O)O; hArg = N=C(N)NCCCC[C@H](N)C(=O)O; 4Pal = N[C@@H](Cc1ccncc1)C(=O)O; Cha = N[C@@H](CC1CCCCC1)C(=O)O; Thr(3ξ) = CC(O)[C@H](N)C(=O)O; Carboxymethyl = O=C(O)C*; NMeA = CN[C@@H](C)C(=O)O; Orn = NCCC[C@H](N)C(=O)O; Aun = NCCCCCCCCCCC(=O)O; Dab = NCC[C@H](N)C(=O)O; AEEA = NCCOCCOCC(=O)O

T1 sequence (Q15116 25-288): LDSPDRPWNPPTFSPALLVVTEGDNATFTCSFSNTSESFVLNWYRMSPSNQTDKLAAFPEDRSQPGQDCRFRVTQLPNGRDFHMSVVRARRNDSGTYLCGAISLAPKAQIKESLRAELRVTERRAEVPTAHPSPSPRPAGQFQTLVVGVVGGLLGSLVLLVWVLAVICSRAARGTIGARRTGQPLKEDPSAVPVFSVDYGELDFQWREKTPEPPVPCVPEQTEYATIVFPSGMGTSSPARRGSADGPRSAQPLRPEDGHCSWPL

As a reminder, the IC50 is the concentration at which inhibition is half-maximal. For the molecule `CC(=O)NCCCC[C@@H]1NC(=O)[C@H](Cc2ccc(-c3ccccc3)cc2)NC(=O)[C@H](Cc2ccc(O)cc2)NC(=O)[C@H](Cc2cccc(C)c2)NC(=O)[C@H](CC(=O)O)NC(=O)[C@H](Cc2ccc(OCC(=O)O)cc2)NC(=O)[C@H](C(C)O)NC(=O)CSC[C@@H](C(=O)NCCOCCOCC(=O)NCCCCCCCCCCC(=O)O)NC(=O)[C@H](C(C)O)NC(=O)[C@H](C(C)C)NC(=O)[C@H](CC2CCCCC2)NC(=O)[C@H](CCN)NC(=O)[C@@H](CC(C)C)NC(=O)[C@H](C)N(C)C1=O` (stereo partly drawn) [Example 2420] ({CH2CO}-[Thr(3ξ)]Y(Carboxymethyl)D[Phe(3-Me)]Y[Bip]K(Ac)[NMeA][dL][Dab][Cha]V[Thr(3ξ)]C[AEEA][Aun]-OH; thioether N-14), the 50% inhibitory concentration (IC50) under setting [1] came to 35.4 nM.
Turning to `CC(=O)NCCCC[C@@H]1NC(=O)[C@H](C(C)C)NC(=O)[C@H](CC2CCCCC2)NC(=O)[C@H](CCN)NC(=O)[C@@H](CC(C)C)NC(=O)[C@H](C)N(C)C(=O)[C@H](CCC(N)=O)NC(=O)[C@H](Cc2ccc(-c3ccccc3)cc2)NC(=O)[C@H](Cc2ccc(OCC(=O)O)cc2)NC(=O)[C@H](Cc2cccc(C)c2)NC(=O)[C@H](CC(=O)O)NC(=O)[C@H](Cc2ccc(OCC(=O)O)cc2)NC(=O)[C@H](Cc2ccncc2)NC(=O)CSC[C@@H](C(=O)N[C@@H](CCN)C(=O)NCCOCCOCC(=O)NCCCCCCCCCCC(=O)O)NC1=O` [Example 2493] ({CH2CO}-[4Pal]Y(Carboxymethyl)D[Phe(3-Me)]Y(Carboxymethyl)[Bip]Q[NMeA][dL][Dab][Cha]VK(Ac)C[Dab][AEEA][Aun]-OH; thioether N-14), the IC50 (PE-labeled PD-L1-Ig 20 nM final, Jurkat-hPD-1 cells; read-out: Jurkat HPD1 PDL1 IC50) is 4.8 nM.
With `CC(C)C[C@H]1NC(=O)[C@H](C)N(C)C(=O)[C@H](Cc2ccc(OCC(=O)O)cc2)NC(=O)[C@H](Cc2ccc(-c3ccccc3)cc2)NC(=O)[C@H](Cc2ccc(OCC(=O)O)cc2)NC(=O)[C@H](Cc2c[nH]c3ccccc23)NC(=O)[C@H](CC(=O)O)NC(=O)[C@H](Cc2ccncc2)NC(=O)[C@H](Cc2ccc(OCC(=O)O)cc2)NC(=O)CSC[C@@H](C(=O)N[C@@H](CCCN)C(=O)NCCOCCOCC(=O)NCCCCCCCCCCC(=O)O)NC(=O)[C@H]([C@@H](C)O)NC(=O)[C@H](C(C)C)NC(=O)[C@H](CC2CCCCC2)NC(=O)[C@H](CCN)NC1=O` [Example 1382] ({CH2CO}-Y(Carboxymethyl)[4Pal]DWY(Carboxymethyl)[Bip]Y(Carboxymethyl)[NMeA][dL][Dab][Cha]VTC[Orn][AEEA][Aun]-OH; thioether N-14), under setting [1], the 50% inhibitory concentration (IC50) worked out at 110 nM.
Same read-out and setting: next, `COC[C@@H]1NC(=O)CSC[C@@H](C(=O)N[C@@H](CCN)C(=O)NCCOCCOCC(=O)N[C@@H](CCC(=O)NCCOCCOCC(=O)NCCCCCCCCCCCCC(=O)O)C(=O)O)NC(=O)[C@H](CO)NC(=O)[C@H](C(C)(C)O)NC(=O)[C@H](CC2CCCCC2)NC(=O)[C@H](CCN)NC(=O)[C@@H](CC(C)C)NC(=O)[C@H](C)N(C)C(=O)[C@H](CCC(N)=O)NC(=O)[C@H](Cc2ccc(-c3ccccc3)cc2)NC(=O)[C@H](Cc2ccc(C(=O)O)cc2)NC(=O)[C@H](Cc2cccc(C(F)(F)F)c2)NC(=O)[C@H](CC(=O)O)NC(=O)[C@H](Cc2ccc(OCC(=O)O)cc2)NC1=O` [Example 1164] ({CH2CO}-S(Me)Y(Carboxymethyl)D[Phe(3-CF3)][Phe(4-COOH)][Bip]Q[NMeA][dL][Dab][Cha][Val(3-OH)]SC[Dab][AEEA][γGlu][AEEA]-{NH(CH2)12COOH}; thioether N-14): 8.9 nM.
Still for that read-out and setting: next, `Cc1cccc(C[C@@H]2NC(=O)[C@H](CC(=O)O)NC(=O)[C@H](Cc3ccc(OCC(=O)O)cc3)NC(=O)[C@H](CCCCNC(=N)N)NC(=O)CSC[C@@H](C(=O)N[C@@H](CCN)C(=O)NCCCCCCCCCCC(=O)O)NC(=O)[C@H](C(C)O)NC(=O)[C@H](C(C)C)NC(=O)[C@H](CC3CCCCC3)NC(=O)[C@H](CCN)NC(=O)[C@@H](CC(C)C)NC(=O)[C@H](C)N(C)C(=O)[C@H](CCCCNC(=O)C3CC3)NC(=O)[C@H](Cc3ccc(-c4ccccc4)cc3)NC(=O)[C@H](Cc3ccc(O)cc3)NC2=O)c1` (stereo partly drawn) [Example 2399] ({CH2CO}-[hArg]Y(Carboxymethyl)D[Phe(3-Me)]Y[Bip]K(Cyclopropanecarbonyl)[NMeA][dL][Dab][Cha]V[Thr(3ξ)]C[Dab][Aun]-OH; thioether N-14): 14.1 nM.
